Reference: patent US20200247846A1, “INHIBITION OF OXIDATIVE STRESS, GLYCATION, AND PROTEIN CROSSLINKING” (THE REGENTS OF THE UNIVERSITY OF COLORADO, A BODY CORPORATE, priority 2017, published 2020)

Legend:
[1] = Stability of GTG in buffers, UPLC-MS MRM analysis; type: physicochemical; conditions: for stability: up to 48 h
Procedure: All chromatographic analyses were carried out in a Waters Acquity UPLC system connected to a Sciex 4500 QTrap (Redwood City, Calif.). Mass spectrometric analyses were carried out in the multiple reaction monitoring (MRM) mode. Chromatographic separations were carried out in an ACQUITY BEH C18 peptide column (100*2.1 mm, 1.7 μm; Waters) connected to a guard column using a flow rate of 0.5 ml/min. Water (solvent A) and acetonitrile (solvent B) were used as eluents. To both solvents, 0.1% heptafluorobutyric acid (v/v) was added. Analyses were performed at a column temperature of 40° C. using gradient elution: 5% B (0-0.25 min) to 20% B (2 min) to 50% B (3 min) to 100% B (3.5-5 min). The column was equilibrated at 5% B for 1 min prior to the next analysis. Detection of the analytes was achieved by using full scan mode for the identification of metabolites in preparative HPLC fraction and multiple reaction monitoring for the quantitation in stability experiments. The ion source was run under the following conditions: temperature, 550° C.; ion spray voltage, 4.5 kV; curtain gas, 45 ml/min; nebulizer gas, 60 ml/min; heating gas, 60 ml/min.
To test the stability, GTG was incubated under various conditions. The following buffers were used: 0.1 M phosphate buffer pH 5, 0.1 M phosphate buffer pH 7, 0.1 M phosphate buffer pH 9 and 0.1% formic acid. 10 μM solutions of […] in each buffer were stored at 4° C., 25° C. or 37° C. for up to 48 h, respectively. Sample aliquots were directly injected to ULPC-MS for MRM analysis. For the identification of degradation products sample aliquots were analyzed using full scan mode.

αB-Crystallin = αB-Crystallin incubated with methylglyoxal with or without GTG: covalent crosslinking and AGE levels; type: biochemical; conditions: 250 μM GTG + 250 μM MGO
Procedure: Legend: 1. αB-crystallin control, 2. αB-crystallin+250 μM GTG, 3. αB-crystallin+250 μM MGO, 4. αB-crystallin+250 μM GTG+250 μM MGO. The bar graphs are means±SD of triplicate measurements. ***p<0.0005. […] Lanes: 1. MW marker, 2. αB-crystallin standard, 3. αB-crystallin blank, 4. αB-crystallin+250 μM GTG, 5. αB-crystallin+250 μM MGO, 5. αB-crystallin+250 μM GTG and 250 μM MGO.
To test the efficacy of GTG in the inhibition of AGE production, αB-Crystallin was incubated with methylglyoxal in the presence or absence of GTG and analyzed for covalent crosslinking and AGE levels.

[2] = tested on: human lens cells (FHL 124); assay: FHL 124 cells: levels of GTG metabolites and α-dicarbonyls; type: cell-based
Procedure: FIG. 6A depicts the scheme of dehydroascorbate (DHA) degradation and formation of reactive α-dicarbonyls and AGEs. […] The bar graphs are means±SD of triplicate measurements. **p<0.005, ***p<0.0005.
Next, human lens cells (FHL 124) were incubated with dehydroascorbic acid in the presence or absence of GTG and analyzed for levels of GTG and its metabolites as well as α-dicarbonyls. […] FHL124 cells were pretreated with GTG before either DHA or MGO was added.

diabetic mice = assay: AGE levels in lenses and retinas of STZ-diabetic mice by UPLC-MS/MS; type: in vivo; conditions: 1 nmole/g body weight i.p. once every two days, 8 weeks; vs untreated diabetic controls
Procedure: The bar graphs are the means±SD of at least 8 measurements. *p<0.05, **p<0.005.
GTG was also tested in diabetic mice. Diabetes was induced by repeated STZ injections. GTG (1 nmole/g body weight) was injected intraperitoneally once every two days. After 8 weeks, lenses and retinas were harvested and analyzed for AGE levels by UPLC-MS/MS.

Mouse lenses = assay: Mouse lens stiffness (axial and equatorial strain under load); conditions: 1.5 mM GTG, 48 h, 37° C.; load of 2,700 mg
Procedure: Mouse lenses (6 months old) were incubated with 1.5 mM GTG for 48 h at 37° C. in serum free MEM in a CO2 incubator. Lens stiffness was measured using a set up as described previously (Cheng C, et al., Journal of visualized experiments: JoVE. 2016, (111):10.3791/ 53986). Lens stiffness was measured using a load of 2,700 mg. Axial and equatorial strains were calculated as previously described (Chen, JOVE 2016, supra).

CCOC(=O)CNC(=O)C(CSSCCNC(=N)N)NC(=O)CCC(N)C(=O)OCC (stereo not shown) [GTG, glutathione diethyl ester thioethylguanidine disulfide]
stability ([1]; 0.1% formic acid, 10 μM, 4° C., 25° C. or 37° C.): stable at all temperatures | stability ([1]; 0.1 M phosphate buffer pH 5, 4° C.): stable | stability ([1]; 0.1 M phosphate buffer pH 5, 25° C.): stable | stability ([1]; 0.1 M phosphate buffer pH 5, 37° C.): slightly degraded | stability ([1]; 0.1 M phosphate buffer pH 7, 4° C., 25° C. or 37° C.): degraded at all temperatures | stability ([1]; 0.1 M phosphate buffer pH 9, 4° C., 25° C. or 37° C.): degraded at all temperatures | reduction of the disulfide bond during the incubation ([1]; all buffer and temperature conditions of the stability test): not observed | covalent crosslinking in αB-crystallin incubated with methylglyoxal (αB-Crystallin; SDS-PAGE): significantly reduced | AGE formation (CEL levels) in αB-crystallin incubated with methylglyoxal (αB-Crystallin; after acid hydrolysis): significantly reduced | penetration of the plasma membrane of FHL124 cells ([2]; 50 mM GTG for 2 h): able to penetrate the plasma membrane | intracellular conversion to glutathione and mercaptoethylguanidine ([2]; 50 mM GTG for 2 h, FHL124 cells): immediately reduced and hydrolyzed to glutathione and mercaptoethylguanidine | reactive α-dicarbonyls derived from dehydroascorbic acid ([2]; cells treated 24 h with dehydroascorbic acid, subsequent incubation with GTG): significant reduction | AGE levels in the lens (diabetic mice): lower | AGE levels in the retina (diabetic mice): lower | improvement of axial strain in comparison to control lenses (Mouse lenses): 23% | improvement of equatorial strain in comparison to control lenses (Mouse lenses): 72%
